Experimental data from the supplement of paper PMC10307832.

Columns and labels:
Assay in all cases: relative viability (nuclei count vs DMSO), 5 days (fraction); higher = more cells survive
[1] = compound: C1/C(=C\C2=CC=CS2)/C(=O)/C(=C/C3=CC=CS3)/C1 + N=C(N)NC(=N)NCCc1ccccc1 [Phenformin] (partner 250 µM)
Procedure, shortened: (§1)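 Relative viability was taken as the ratio of nuclei in treated wells to nuclei in vehicle wells. Lung cancer cell lines in 1536-well plates received compounds by pin tool one day after seeding, either one drug alone or a fixed anchor-drug dose plus five library-drug doses (not always all listed) in √10 steps. Nuclei were counted on 4× images after 5 days of treatment, and values are medians of duplicate plates.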

[2] = compound: C1/C(=C\C2=CC=CS2)/C(=O)/C(=C/C3=CC=CS3)/C1 + CC(=O)c1c(C)c2cnc(Nc3ccc(N4CCNCC4)cn3)nc2n(C2CCCC2)c1=O [Palbociclib] (partner 0.5 µM)
Procedure, shortened: as §1

TPCA-1 + Crizotinib = compound: C1=CC(=CC=C1C2=CC(=C(S2)NC(=O)N)C(=O)N)F [TPCA-1] + C[C@@H](Oc1cc(-c2cnn(C3CCNCC3)c2)cnc1N)c1c(Cl)ccc(F)c1Cl [Crizotinib] (partner 1 µM)
Procedure, shortened: as §1

[3] = compound: C[C@]12O[C@H](C[C@]1(O)CO)n1c3ccccc3c3c4c(c5c6ccccc6n2c5c31)CNC4=O [Lestaurtinib] + CC(C)C[C@H](NC(=O)[C@H](Cc1ccccc1)NC(=O)c1cnccn1)B(O)O [Bortezomib] (partner 0.002 µM)
Procedure, shortened: as §1

For NCI-H522, the relative viability ([1]; first compound 0.2 µM) was 0.677, the relative viability ([1]; first compound 0.6325 µM) was 0.649 and the relative viability ([1]; first compound 2 µM) was 0.662. The relative viability ([1]; first compound 6.325 µM) was 0.644, the relative viability ([1]; first compound 20 µM) was 0.651 and the relative viability ([2]; first compound 0.2 µM) was 0.855. It also gave a relative viability ([2]; first compound 0.6325 µM) of 1.33, a relative viability ([2]; first compound 2 µM) of 1.03 and a relative viability ([2]; first compound 6.325 µM) of 0.735. It also gave a relative viability ([2]; first compound 20 µM) of 0.917.
In the case of NCI-H1299, the relative viability (TPCA-1 + Crizotinib; first compound 0.04 µM) is reported as 0.95, the relative viability (TPCA-1 + Crizotinib; first compound 0.1265 µM) is reported as 0.943 and the relative viability (TPCA-1 + Crizotinib; first compound 0.4 µM) is reported as 0.907. It also gave a relative viability (TPCA-1 + Crizotinib; first compound 1.265 µM) of 0.972, a relative viability (TPCA-1 + Crizotinib; first compound 4 µM) of 0.948 and a relative viability ([3]; first compound 0.005 µM) of 1.04. For the same cell line, the relative viability ([3]; first compound 0.01581 µM) was 0.982, the relative viability ([3]; first compound 0.05 µM) was 1.03 and the relative viability ([3]; first compound 0.1581 µM) was 0.843. It also gave a relative viability ([3]; first compound 0.5 µM) of 0.751.
LK-2 showed a relative viability (TPCA-1 + Crizotinib; first compound 0.04 µM) of 0.22, a relative viability (TPCA-1 + Crizotinib; first compound 0.1265 µM) of 0.229 and a relative viability (TPCA-1 + Crizotinib; first compound 0.4 µM) of 0.289. It also gave a relative viability (TPCA-1 + Crizotinib; first compound 1.265 µM) of 0.206, a relative viability (TPCA-1 + Crizotinib; first compound 4 µM) of 0.313 and a relative viability ([1]; first compound 0.2 µM) of 0.576. The relative viability ([1]; first compound 0.6325 µM) was 0.505, the relative viability ([1]; first compound 2 µM) was 0.622 and the relative viability ([1]; first compound 6.325 µM) was 0.379. For the same cell line, the relative viability ([1]; first compound 20 µM) was 0.483, the relative viability ([2]; first compound 0.2 µM) was 0.639 and the relative viability ([2]; first compound 2 µM) was 0.706. The relative viability ([2]; first compound 6.325 µM) was 0.787 and the relative viability ([2]; first compound 20 µM) was 0.732.
NCI-H358 showed a relative viability (TPCA-1 + Crizotinib; first compound 0.04 µM) of 0.759, a relative viability (TPCA-1 + Crizotinib; first compound 0.1265 µM) of 0.559 and a relative viability (TPCA-1 + Crizotinib; first compound 0.4 µM) of 0.541. The relative viability (TPCA-1 + Crizotinib; first compound 1.265 µM) was 0.39, the relative viability (TPCA-1 + Crizotinib; first compound 4 µM) was 0.264 and the relative viability ([1]; first compound 0.2 µM) was 0.358. The relative viability ([1]; first compound 0.6325 µM) was 0.303, the relative viability ([1]; first compound 2 µM) was 0.428 and the relative viability ([1]; first compound 20 µM) was 0.281. It also gave a relative viability ([2]; first compound 0.2 µM) of 0.187, a relative viability ([2]; first compound 0.6325 µM) of 0.135 and a relative viability ([2]; first compound 2 µM) of 0.152. The relative viability ([2]; first compound 6.325 µM) was 0.143 and the relative viability ([2]; first compound 20 µM) was 0.125.
Work on SK-MES-1 yielded a relative viability (TPCA-1 + Crizotinib; first compound 0.04 µM) of 1, a relative viability (TPCA-1 + Crizotinib; first compound 0.1265 µM) of 0.907 and a relative viability (TPCA-1 + Crizotinib; first compound 0.4 µM) of 0.923. It also gave a relative viability (TPCA-1 + Crizotinib; first compound 1.265 µM) of 0.948, a relative viability (TPCA-1 + Crizotinib; first compound 4 µM) of 0.589 and a relative viability ([1]; first compound 0.2 µM) of 0.722. The relative viability ([1]; first compound 0.6325 µM) was 0.742, the relative viability ([1]; first compound 2 µM) was 0.605 and the relative viability ([1]; first compound 6.325 µM) was 0.644. The relative viability ([1]; first compound 20 µM) was 0.546, the relative viability ([2]; first compound 0.2 µM) was 0.347 and the relative viability ([2]; first compound 0.6325 µM) was 0.321. The relative viability ([2]; first compound 2 µM) was 0.329, the relative viability ([2]; first compound 6.325 µM) was 0.311 and the relative viability ([2]; first compound 20 µM) was 0.292.
NCI-H1648 showed a relative viability ([2]; first compound 0.2 µM) of 0.271, a relative viability ([2]; first compound 0.6325 µM) of 0.497 and a relative viability ([2]; first compound 2 µM) of 0.271. For the same cell line, the relative viability ([2]; first compound 6.325 µM) was 0.262 and the relative viability ([2]; first compound 20 µM) was 0.288.
EBC-1 gave a relative viability (TPCA-1 + Crizotinib; first compound 0.04 µM) of 0.206, a relative viability (TPCA-1 + Crizotinib; first compound 0.1265 µM) of 0.175 and a relative viability (TPCA-1 + Crizotinib; first compound 0.4 µM) of 0.201. For the same cell line, the relative viability (TPCA-1 + Crizotinib; first compound 1.265 µM) was 0.195, the relative viability (TPCA-1 + Crizotinib; first compound 4 µM) was 0.222 and the relative viability ([3]; first compound 0.005 µM) was 0.495. The relative viability ([3]; first compound 0.01581 µM) was 0.621, the relative viability ([3]; first compound 0.05 µM) was 0.504 and the relative viability ([3]; first compound 0.1581 µM) was 0.43. It also gave a relative viability ([3]; first compound 0.5 µM) of 0.227.
Cell Line NCI-H1395 has a relative viability ([1]; first compound 0.2 µM) of 0.448, a relative viability ([1]; first compound 0.6325 µM) of 0.484 and a relative viability ([1]; first compound 2 µM) of 0.505. The relative viability ([1]; first compound 6.325 µM) was 0.483, the relative viability ([1]; first compound 20 µM) was 0.465 and the relative viability ([2]; first compound 0.2 µM) was 0.616. It also gave a relative viability ([2]; first compound 0.6325 µM) of 0.683, a relative viability ([2]; first compound 2 µM) of 0.612 and a relative viability ([2]; first compound 6.325 µM) of 0.566. It also gave a relative viability ([2]; first compound 20 µM) of 0.599.
In the case of IA-LM, the relative viability (TPCA-1 + Crizotinib; first compound 0.04 µM) is reported as 0.767, the relative viability (TPCA-1 + Crizotinib; first compound 0.1265 µM) is reported as 0.762 and the relative viability (TPCA-1 + Crizotinib; first compound 0.4 µM) is reported as 0.985. For the same cell line, the relative viability (TPCA-1 + Crizotinib; first compound 1.265 µM) was 0.667, the relative viability (TPCA-1 + Crizotinib; first compound 4 µM) was 0.657 and the relative viability ([3]; first compound 0.005 µM) was 1.08. For the same cell line, the relative viability ([3]; first compound 0.01581 µM) was 1.18, the relative viability ([3]; first compound 0.05 µM) was 1.08 and the relative viability ([3]; first compound 0.1581 µM) was 0.943. The relative viability ([3]; first compound 0.5 µM) was 0.339.
Work on NCI-H1703 yielded a relative viability (TPCA-1 + Crizotinib; first compound 0.04 µM) of 0.585, a relative viability (TPCA-1 + Crizotinib; first compound 0.1265 µM) of 0.57 and a relative viability (TPCA-1 + Crizotinib; first compound 0.4 µM) of 0.594. For the same cell line, the relative viability (TPCA-1 + Crizotinib; first compound 1.265 µM) was 0.396, the relative viability (TPCA-1 + Crizotinib; first compound 4 µM) was 0.459 and the relative viability ([3]; first compound 0.005 µM) was 0.31. It also gave a relative viability ([3]; first compound 0.01581 µM) of 0.359, a relative viability ([3]; first compound 0.05 µM) of 0.308 and a relative viability ([3]; first compound 0.1581 µM) of 0.137. The relative viability ([3]; first compound 0.5 µM) was 0.117.
For NCI-H2170, the relative viability (TPCA-1 + Crizotinib; first compound 0.04 µM) was 1.33, the relative viability (TPCA-1 + Crizotinib; first compound 0.1265 µM) was 1.15 and the relative viability (TPCA-1 + Crizotinib; first compound 0.4 µM) was 1.16. It also gave a relative viability (TPCA-1 + Crizotinib; first compound 1.265 µM) of 1.13, a relative viability (TPCA-1 + Crizotinib; first compound 4 µM) of 0.583 and a relative viability ([1]; first compound 0.2 µM) of 0.466. The relative viability ([1]; first compound 0.6325 µM) was 0.484, the relative viability ([1]; first compound 2 µM) was 0.426 and the relative viability ([1]; first compound 6.325 µM) was 0.405. The relative viability ([1]; first compound 20 µM) was 0.408, the relative viability ([2]; first compound 0.2 µM) was 0.386 and the relative viability ([2]; first compound 0.6325 µM) was 0.382. It also gave a relative viability ([2]; first compound 2 µM) of 0.376, a relative viability ([2]; first compound 6.325 µM) of 0.248 and a relative viability ([2]; first compound 20 µM) of 0.393.
NCI-H1793 was tested, and the relative viability ([1]; first compound 0.2 µM) was 0.375, the relative viability ([1]; first compound 0.6325 µM) was 0.351 and the relative viability ([1]; first compound 2 µM) was 0.515. It also gave a relative viability ([1]; first compound 6.325 µM) of 0.337, a relative viability ([1]; first compound 20 µM) of 0.355 and a relative viability ([2]; first compound 0.2 µM) of 0.343. For the same cell line, the relative viability ([2]; first compound 0.6325 µM) was 0.368, the relative viability ([2]; first compound 2 µM) was 0.351 and the relative viability ([2]; first compound 6.325 µM) was 0.306. For the same cell line, the relative viability ([2]; first compound 20 µM) was 0.315.
